Data set [1] is described as follows: Cytotoxicity against mouse R7T1 cells assessed as reduction in cell viability. Format: functional.
The nature of data set [2]: Selectivity ratio of CC50 for mouse R7T1 cells to ECmin for mouse pancreatic islet cells. Format: toxicity. The conditions noted are these: R7T1 cells (CC50) and pancreatic islet cells (ECmin).
The target of data set [3] is Glycogen synthase kinase-3 beta (Homo sapiens, UniProt P49841). As to the kind of experiment: Inhibition of GSK3beta (unknown origin).
Chain of Glycogen synthase kinase-3 beta (P49841 whole entry): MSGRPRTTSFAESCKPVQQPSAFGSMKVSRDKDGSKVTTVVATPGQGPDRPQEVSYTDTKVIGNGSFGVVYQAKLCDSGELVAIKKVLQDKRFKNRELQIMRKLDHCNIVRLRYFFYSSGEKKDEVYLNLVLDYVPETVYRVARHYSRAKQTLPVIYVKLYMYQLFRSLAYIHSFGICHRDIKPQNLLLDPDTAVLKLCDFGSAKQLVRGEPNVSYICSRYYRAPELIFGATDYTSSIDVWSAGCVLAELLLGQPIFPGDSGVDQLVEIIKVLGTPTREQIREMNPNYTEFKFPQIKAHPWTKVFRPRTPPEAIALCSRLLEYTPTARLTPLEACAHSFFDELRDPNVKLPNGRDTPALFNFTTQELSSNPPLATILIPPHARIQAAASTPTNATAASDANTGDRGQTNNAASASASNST
Data set [4] can be described thus: Synergistic […] activity against human Pancreatic beta cell proliferation in presence of GLP1 at 5 nM by Ki-67 immuno labelling assay. It is filed as functional.
A short description of data set [5]: Synergistic […] activity against human Pancreatic beta cell proliferation in NSG mouse model at 0.5 ug/kg by immuno labelling assay. It is filed as functional.
Data set [6] in a line: Induction of human Pancreatic beta cell proliferation at 50 mg/kg measured after 5 days in presence of EdU incorporation by Cell-Titer Glo assay. Format: functional. The note with it: 120 h.
Data set [7] can be described thus: Induction of rat Pancreatic beta cell proliferation at 1 uM assessed as increase in fold chain after 6 days in presence of EdU incorporation by Cell-Titer Glo assay. Format: functional. The conditions noted are these: time 6 day.
Data set [8] is described as follows: Volume of distribution at steady state in mouse, po. The note with it: in vivo. It is filed as ADME.
Data set [9] in a line: AUC (0 to infinity) in mouse at 1 mg/kg, po. It is filed as ADME, organism-based. The note with it: in vivo. Set-up: dose 1 mg/kg, route po.
Data set [10] deals with Dual specificity protein kinase CLK1/CLK2/CLK4 (Homo sapiens) (UniProt Q9HAZ1+P49759+P49760). Description: Inhibition of CLK1/2/4 (unknown origin) relative to control. It is filed as protein assay. The conditions noted are these: concentration not given here.
Chain of Dual specificity protein kinase CLK1/CLK2/CLK4 (Homo sapiens) (P49759 whole entry, looked up): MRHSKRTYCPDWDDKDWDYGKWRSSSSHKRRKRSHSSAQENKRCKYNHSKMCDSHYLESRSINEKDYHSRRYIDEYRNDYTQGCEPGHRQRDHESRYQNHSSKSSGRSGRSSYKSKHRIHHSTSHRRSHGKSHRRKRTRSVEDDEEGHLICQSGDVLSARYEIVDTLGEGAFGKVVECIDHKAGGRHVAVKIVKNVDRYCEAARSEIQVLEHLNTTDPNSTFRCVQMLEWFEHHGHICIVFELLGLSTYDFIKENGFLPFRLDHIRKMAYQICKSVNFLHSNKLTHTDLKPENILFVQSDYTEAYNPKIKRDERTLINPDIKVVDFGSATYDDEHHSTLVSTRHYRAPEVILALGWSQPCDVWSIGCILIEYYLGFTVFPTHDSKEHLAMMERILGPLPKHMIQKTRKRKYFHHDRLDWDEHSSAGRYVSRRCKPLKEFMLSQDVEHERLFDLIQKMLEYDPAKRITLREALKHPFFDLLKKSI
Chain of Dual specificity protein kinase CLK1/CLK2/CLK4 (Homo sapiens) (P49760 whole entry, looked up): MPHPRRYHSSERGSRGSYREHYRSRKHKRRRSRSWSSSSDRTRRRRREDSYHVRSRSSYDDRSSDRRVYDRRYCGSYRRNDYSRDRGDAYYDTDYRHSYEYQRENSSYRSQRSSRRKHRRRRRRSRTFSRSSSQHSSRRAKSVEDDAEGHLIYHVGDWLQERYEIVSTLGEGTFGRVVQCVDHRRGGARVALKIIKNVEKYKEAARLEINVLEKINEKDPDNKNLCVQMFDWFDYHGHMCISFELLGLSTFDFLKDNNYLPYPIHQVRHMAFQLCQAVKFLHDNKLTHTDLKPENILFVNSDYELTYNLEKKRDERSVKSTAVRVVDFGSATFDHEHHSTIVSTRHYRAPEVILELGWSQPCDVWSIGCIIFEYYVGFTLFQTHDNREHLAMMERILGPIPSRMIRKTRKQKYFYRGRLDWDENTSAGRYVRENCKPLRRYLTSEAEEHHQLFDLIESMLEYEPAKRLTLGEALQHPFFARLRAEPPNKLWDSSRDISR
Chain of Dual specificity protein kinase CLK1/CLK2/CLK4 (Homo sapiens) (Q9HAZ1 whole entry, looked up): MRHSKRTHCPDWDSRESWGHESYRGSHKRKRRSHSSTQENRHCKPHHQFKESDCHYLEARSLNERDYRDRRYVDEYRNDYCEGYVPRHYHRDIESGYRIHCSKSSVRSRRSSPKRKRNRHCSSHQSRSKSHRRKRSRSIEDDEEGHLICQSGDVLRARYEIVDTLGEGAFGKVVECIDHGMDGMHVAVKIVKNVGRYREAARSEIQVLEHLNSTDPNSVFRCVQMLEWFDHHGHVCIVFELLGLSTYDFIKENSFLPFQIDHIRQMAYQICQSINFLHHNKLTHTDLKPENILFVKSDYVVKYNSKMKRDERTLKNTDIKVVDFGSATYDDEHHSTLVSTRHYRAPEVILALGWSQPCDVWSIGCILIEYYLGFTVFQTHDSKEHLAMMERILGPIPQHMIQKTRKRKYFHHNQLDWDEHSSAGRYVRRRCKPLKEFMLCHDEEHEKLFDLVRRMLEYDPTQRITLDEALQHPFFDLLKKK

Take `CCOC(=O)c1cnc2ccc(-c3ccncc3)nc2c1N[C@H]1CC[C@H](CN2CCOCC2)CC1`: the Emin in [1] is recorded as 3.3 nM. Further, the selectivity ratio in [2] turned out to be 143.

As for `CC(C)Oc1ccc(F)c(-c2cnc(N)c(C(=O)Nc3cnccc3N3CCCC(C(=O)O)C3)n2)c1` (centres undefined), the Emin in [1] is reported as less than 100 nM.

On to `COc1ccc2c(c1)[nH]c1c(CO)nccc12`, for which, in [3], the concentration for half-maximal inhibition (IC50) (usually the concentration needed to halve the response being measured) was more than 8300 nM.

With `COc1ccc2c(c1)[nH]c1c(C)nccc12` [HARMINE], the Activity in data set [4] worked out at 5%; in [5] it was 0.8%.

Regarding `Nc1ncc(-c2ccccc2)nc1C(=O)Nc1cnccc1N1CCC(C(=O)O)CC1`, the EC50 (usually the concentration at which the effect is half-maximal) in data set [6] worked out at 0.76 nM.

Consider `Nc1ncnc2c1c(I)cn2[C@@H]1O[C@H](CO)[C@@H](O)[C@H]1O` [IODOTUBERCIDIN], for which the “fold change (FC)” value in data set [7] worked out at 10.

Turning to `CCOC(=O)c1cnc2ccc(-c3cc(Cl)c(O)c(Cl)c3)nc2c1NC1CCN(C)CC1`, the Emin in [1] is reported as 10 nM. The selectivity ratio in data set [2] was found to be 117.

As for `CCOC(=O)c1cnc2ccc(-c3ccncc3)nc2c1N[C@H]1CC[C@H](CN(C)C)CC1`, the selectivity ratio in data set [2] was determined as 259.

The molecule `CCN1CCN(C(=O)Nc2cc(-c3cn(C4CCOCC4)c4cnccc34)ccn2)CC1` came in with a Vdss in data set [8] of 11 L/kg. In addition, the AUC (in general, concentration integrated over time) in [9] is 3.27 µM·h. Moreover, the inhibition – broadly, the percentage by which the read-out fell short of the control – in [10] is 90%.

Values taken from ChEMBL document CHEMBL5233270, “DYRK1A Inhibitors as Potential Therapeutics for β-Cell Regeneration for Diabetes” (J Med Chem, 2021).
